From patent US20240209043A1, “NON-ANTIBODY BINDING PEPTIDES AND THEIR ANALOGS DUAL-TARGETING TO PD-1 AND PD-L1, AND USES THEREOF” (ORAL SUBSIDIARY SUN YAT-SEN UNIVERSITY HOSPITAL, priority 2021, published 2024)
Entries after “also recorded” stand apart in the source; their conditions may differ. Where a SMILES comes first, the peptide text is derived from it. Bridges are numbered along the chain shown (N, C = ends). Roman numbers before positions name the chains, in order. Where no end group is shown, it is not given here.

Key:
[1] = system: Jurkat T cells; assay: CCK-8 cytotoxicity assay on Jurkat T cells; format: cell-based, Human; details: CCK-8, 1-64 μM, 24 hours
Description: (§1) Cytotoxicity assay was performed and measured with Cell Counting Kit-8 (CCK-8, Dujindo, Japan). Jurkat cells (each well with 4000 cells), PBMCs (each well with 4000 cells) and Cal27 cells (each well with 2000 cells) were added into a 96-well plate and cultured for 24 hours, respectively. nABP284, nABP386 and nABP486 in a concentration gradient of 1 μM, 2 μM, 3 μM, 4 μM, 8 μM, 16 μM, 32 μM and 64 μM were added into the medium and the cells were cultured for 24 hours in a cell incubator. After that, 10 μl of CCK-8 solution was added to each well and the cells were incubated for 2 hours. VictorX5 Multilabel plate reader (PerkinElmer, Singapore) was used for measuring absorbance of each well at 450 nm. Cell viability (%) was calculated by the following formula:
(§2) Cell viability (%)=[(Sample A−Background A)/(Control A−Blank A)×100%. • Wherein Sample A denotes the absorbance of the experimental well (including cells, CCK-8 solution, medium and peptide diluent) • Background A denotes the absorbance of the background hole (including CCK-8 solution, medium, and peptide diluent without cells); • Control A denotes the absorbance of the control hole (including cells, CCK-8 solution and medium without peptide diluent); and • Blank A denotes the absorbance of the blank hole (including CCK-8 solution and medium without cells and peptide diluent).

[2] = system: Cal27 cells; assay: CCK-8 cytotoxicity assay on Cal27 cells; format: cell-based, Human; details: CCK-8, 1-64 μM, 24 hours
Description: as §1, §2

[3] = system: peripheral blood derived lymphocytes; assay: CCK-8 cytotoxicity assay on PBMCs / iCIKs; format: cell-based, Human; details: CCK-8, 1-64 μM, 24 hours
Description: as §1, §2

[4] = system: Cal27 cells co-cultured with iCIKs; assay: iCIKs-mediated tumor killing efficiency on Cal27 cells (LDH release); format: cell-based, Human; details: 10 μM peptide or 2 ug/ml antibody, iCIKs:Cal27 10 to 1, 6 hours
Description: Human peripheral blood and PBS are mixed at a ratio of 1 to 1, and then the mixture was added to the surface of Ficoll solution in an equal volume and the mixture and Ficoll were kept layered. Density gradient centrifugation (400 g, 20 min) was used for separating components of the peripheral blood. 10 ug/ml of Anti-CD3 monoclonal antibody (T210, TAKARA) was coated on cell culture dishes to cover the mixture at 4° C. overnight. The separated PBMCs were added to the coated dishes in which RPMI1640 medium supplemented with 10% of fetal calf serum, 2000 U/ml of IFN-γ, and 10 ng/ml of IL-2 was added and was changed every three days. After a ten-day culture, the stimulated PBMCs were known as improving cytokine-induced killer cells (iCIKs).
500 U/ml of IFN-γ was used for stimulating Cal27 cells for 48 hours. The iCIKs were incubated with 10 uM of nABP284, 10 μM of nABP386, 10 μM of nABP486, and 2 ug/ml of PD-1 functional monoclonal antibody (J116, eBioscience|ThermoFisher Science) for 1 hour at 37° C., respectively, and the stimulated CAL27 cells were added to the 96-well plate at 1×10^4 cells per well. […] After these cells were co-cultured for 6 hours, a Cyto Tox Non-Radioactive Cytotoxicity Assay kit was used for detecting the level of lactic dehydrogenase (LDH) in the medium and VictorX5 multilabel plate reader (PerkinElmer, Singapore) was used for measuring absorbance at 490 nm.

[5] = target: T1, PD-1 (Homo sapiens, UniProt Q15116); details: background section; read-out: Kd-value of antibody drug targeting PD-1; cited from earlier work
Target sequence in this assay (Q15116 25-288): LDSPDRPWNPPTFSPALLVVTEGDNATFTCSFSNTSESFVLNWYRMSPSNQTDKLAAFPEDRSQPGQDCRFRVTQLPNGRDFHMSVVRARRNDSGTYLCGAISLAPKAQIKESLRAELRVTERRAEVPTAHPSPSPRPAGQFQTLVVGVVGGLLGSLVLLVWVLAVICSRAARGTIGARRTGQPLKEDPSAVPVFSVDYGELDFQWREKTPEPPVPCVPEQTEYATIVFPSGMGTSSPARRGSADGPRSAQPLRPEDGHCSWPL

[6] = target: T2, PD-L1 (Homo sapiens, UniProt Q9NZQ7); details: background section; read-out: Kd-value of antibody drug targeting PD-L1; cited from earlier work
Target sequence in this assay (Q9NZQ7 19-290): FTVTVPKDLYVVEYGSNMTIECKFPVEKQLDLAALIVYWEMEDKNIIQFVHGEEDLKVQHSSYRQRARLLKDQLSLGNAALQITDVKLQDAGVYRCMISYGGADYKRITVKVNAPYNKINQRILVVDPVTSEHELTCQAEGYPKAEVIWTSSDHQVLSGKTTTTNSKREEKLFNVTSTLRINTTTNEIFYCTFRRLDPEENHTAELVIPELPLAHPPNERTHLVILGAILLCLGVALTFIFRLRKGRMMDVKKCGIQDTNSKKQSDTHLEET

[7] = target: T1, PD-1; assay: ka (1/Ms)
Description: Table printed on a drawing sheet, Figure 2E
Title: nABP786 binding to PD-1
(§3) Head of the field: ka (1/Ms)
(§4) The patent's description of the figure: FIG. 2A depicts test results of binding affinity of nABP284 to PD-1 measured by surface plasmon resonance (SPR);
(§5) FIG. 2B depicts test results of binding affinity of nABP386 to PD-1 measured by SPR;
(§6) FIG. 2C depicts test results of binding affinity of nABP486 to PD-1 measured by SPR;
(§7) FIG. 2D depicts test results of binding affinity of nABP486 to PD-L1 measured by SPR;
(§8) FIG. 2E depicts test results of binding affinity of nABP786 to PD-1 measured by SPR;
(§9) FIG. 2F depicts test results of binding affinity of nABP786 to PD-L1 measured by SPR;
First copying reader's note: Inset table of SPR kinetic constants printed above the sensorgram; the target is PD-1.
Where the first naming reader finds the target: table_title: nABP786 binding to PD-1
Target sequence in this assay (Q15116 25-288 limits assumed): as the sequence (Q15116 25-288) above

[8] = target: T2, PD-L1; assay: ka (1/Ms)
Description: Table printed on a drawing sheet, Figure 2F
Title: nABP786 binding to PD-L1
as §3, §4, §5, §6, §7, §8, §9
Target sequence in this assay (Q9NZQ7 19-290 limits assumed): as the sequence (Q9NZQ7 19-290) above
First copying reader's note: Inset table of SPR kinetic constants printed above the sensorgram; the target is PD-L1.
Where the first naming reader finds the target: table_title: nABP786 binding to PD-L1

I: SHHHRLKLKEIANSPTQFWRMVARNTLGNGAKQSLNIEHA / II: SHHHRL (amide I:7-II:C) [nABP486]
direct cytotoxicity to Jurkat T cells [1]: no directly cytotoxicity; also recorded: non-toxic and side effects | direct cytotoxicity to Cal27 cells [2]: no directly cytotoxicity; also recorded: no direct killing ability to Cal27 cells; also recorded: non-toxic and side effects | toxicity on peripheral blood derived lymphocytes [3]: non-toxic and side effects | iCIKs-mediated cytotoxicity (killing ability) for Cal27 cells [4]: significantly increased; also recorded: significantly reverse the immune escape of tongue cancer cells; also recorded: superior to functional anti-PD-1 antibody; also recorded: can enhance the tumor killing effect of lymphocytes on tumor cells

Cindilimab
Kd [5]: 0.25 nM

Durvalumab
Kd [6]: 0.667 nM

Toripalimab
Kd [5]: 0.324 nM

Atezolizumab
Kd [6]: 0.4 nM

Cemiplimab
Kd [5]: 6.11 nM

I: SRLKEIANSPTQFWRMVARNTLGNHAKQSLNIEHA / II: SHHHRL (amide I:27-II:C) [nABP386]
direct cytotoxicity to Jurkat T cells [1]: no directly cytotoxicity; also recorded: non-toxic and side effects | direct cytotoxicity to Cal27 cells [2]: no directly cytotoxicity; also recorded: non-toxic and side effects | toxicity on peripheral blood derived lymphocytes [3]: non-toxic and side effects | iCIKs-mediated cytotoxicity (killing ability) for Cal27 cells [4]: can enhance the tumor killing effect of lymphocytes on tumor cells

CC[C@H](C)[C@H](NC(=O)[C@H](CCC(=O)O)NC(=O)[C@H](CCCCN)NC(=O)[C@H](CC(C)C)NC(=O)[C@H](CCCCNC(=O)[C@H](CC(C)C)NC(=O)[C@H](CCCNC(=N)N)NC(=O)[C@H](Cc1c[nH]cn1)NC(=O)[C@H](Cc1c[nH]cn1)NC(=O)[C@H](Cc1c[nH]cn1)NC(=O)[C@@H](N)CO)NC(=O)[C@H](CC(C)C)NC(=O)[C@H](CCCNC(=N)N)NC(=O)[C@H](Cc1c[nH]cn1)NC(=O)[C@H](Cc1c[nH]cn1)NC(=O)[C@H](Cc1c[nH]cn1)NC(=O)[C@@H](N)CO)C(=O)N[C@@H](C)C(=O)N[C@@H](CC(N)=O)C(=O)N[C@@H](CS)C(=O)N[C@@H](CO)C(=O)N1CCC[C@H]1C(=O)N[C@H](C(=O)N[C@@H](CCC(N)=O)C(=O)N[C@@H](Cc1ccccc1)C(=O)N[C@@H](CCCCN)C(=O)N[C@@H](CS)C(=O)O)[C@@H](C)O [nABP786] (HELM PEPTIDE1{S.H.H.H.R.L.K.L.K.E.I.A.N.C.S.P.T.Q.F.K.C}|PEPTIDE2{S.H.H.H.R.L}$PEPTIDE1,PEPTIDE2,7:R3-6:R2$$$V2.0)
ka [7]: 77600 M⁻¹ s⁻¹ | ka [8]: 29000 M⁻¹ s⁻¹
